# Data from ChEMBL document CHEMBL3046308, “Synthesis of phenoxyphenyl pyridine and pyrazine carboxamides. Activity against Cydia pomonella (L.) eggs” (2000).
# Columns and labels:
# Assay type in all cases: functional
# Cydia pomonella [1] = assay: Ovicidal activity against 24 hr old Cydia pomonella (codling moth) eggs assessed as efficacy at 5 mg/ml sprayed at 19 +/- 1 degC
# Cydia pomonella [2] = assay: Ovicidal activity against 24 hr old Cydia pomonella (codling moth) eggs assessed as mortality at 5 mg/ml sprayed at 19 +/- 1 degC
# Cydia pomonella [3] = assay: Ovicidal activity against 24 hr old Cydia pomonella (codling moth) eggs assessed as development period at 5 mg/ml sprayed at 19 +/- 1 degC
SMILES,Efficacy (Cydia pomonella [1]) [%],mortality at 5000 µg/mL (Cydia pomonella [2]) [%],Time (Cydia pomonella [3]) [days]
C=CCOC(=O)Nc1ccc(Oc2ccc(N)cc2)cc1,35,48.1,11.3
C=CCOC(=O)Nc1ccc(Oc2ccc(NC(=O)c3ccccn3)cc2)cc1,27.2,40.7,11.1
C=CCOC(=O)Nc1ccc(Oc2ccc(NC(=O)c3cccnc3)cc2)cc1,–,34.4,10.2
C=CCOC(=O)Nc1ccc(Oc2ccc(NC(=O)c3ccncc3)cc2)cc1,42.5,53.8,11.7
C=CCOC(=O)Nc1ccc(Oc2ccc(NC(=O)c3cnccn3)cc2)cc1,–,25.3,9.5
O=C(Nc1ccc(Oc2ccccc2)cc1)c1ccncc1,–,33.4,10
O=C(Nc1ccc(Oc2ccccc2)cc1)c1cnccn1,–,29.2,9.7
CC(=O)Nc1ccc(Oc2ccc(NC(=O)c3ccccn3)cc2)cc1,47.1,67.3,10.9
CC(=O)Nc1ccc(Oc2ccc(NC(=O)c3cccnc3)cc2)cc1,–,57.6,10.6
CC(=O)Nc1ccc(Oc2ccc(NC(=O)c3ccncc3)cc2)cc1,–,52.7,10.1
CC(=O)Nc1ccc(Oc2ccc(NC(=O)c3cnccn3)cc2)cc1,49.1,68.4,11
O=C(Nc1ccc(Oc2ccccc2)cc1)c1cccnc1,26.3,40.9,10.6
O=C(Nc1ccc(Oc2ccccc2)cc1)c1ccccn1,40.7,52.4,10.8
CCOC(=O)NCCOc1ccc(Oc2ccccc2)cc1 [PHENOXYCARB],99.1,99.3,–
